According to patent US5902812A, “Pharmaceutical piperazine compounds” (Xenova Limited, priority 1994, dated 1999):

Molecular target: PAI-1 (Homo sapiens, UniProt P05121)
Assay: biochemical
Details: for inhibition at 20 µM / inhibition at 100 µM: read-out: Degree of inhibition in PAI chromogenic substrate assay; for IC50: PAI chromogenic substrate assay, read-out: IC50
[1] = 100 μM (third part of Table 1), 100 µM
[2] = 20 μM (third part of Table 1), 20 µM

Sequence of PAI-1 (P05121 24-402): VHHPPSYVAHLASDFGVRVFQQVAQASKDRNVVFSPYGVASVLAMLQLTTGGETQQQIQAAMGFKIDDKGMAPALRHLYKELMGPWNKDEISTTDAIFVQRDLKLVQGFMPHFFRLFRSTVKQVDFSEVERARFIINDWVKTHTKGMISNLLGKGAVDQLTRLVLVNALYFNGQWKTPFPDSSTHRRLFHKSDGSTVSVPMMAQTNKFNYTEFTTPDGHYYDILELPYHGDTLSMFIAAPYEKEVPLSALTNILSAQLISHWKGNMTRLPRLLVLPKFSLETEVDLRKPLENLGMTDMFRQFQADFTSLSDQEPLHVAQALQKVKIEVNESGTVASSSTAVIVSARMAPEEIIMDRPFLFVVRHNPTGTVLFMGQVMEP

Row | SMILES | inhibition at 20 µM (20 μM (third part of Table 1)) | inhibition at 100 µM (100 μM (third part of Table 1)) | IC50 | other results
1 | CN(C)CCCOc1ccc(/C=c2\[nH]c(=O)/c(=C/c3ccccc3[N+](=O)[O-])[nH]c2=O)cc1 [Compound 5208, (3Z,6Z)-6-(4-(3-Dimethylaminopropoxy)benzylidene)-3-(2-nitrobenzylidene)-2,5-piperazinedione] | 10% | 32% | – | –
2 | CN(C)CCCOc1ccc(/C=c2\[nH]c(=O)/c(=C/c3cccc([N+](=O)[O-])c3)[nH]c2=O)cc1 [Compound 5209, (3Z,6Z)-6-(4-(3-Dimethylaminopropoxy)benzylidene)-3-(3-nitrobenzylidene)-2,5-piperazinedione] | – | – | 1.4 µM | –
3 | CN(C)CCCOc1ccc(/C=c2\[nH]c(=O)/c(=C/c3ccccc3[N+](=O)[O-])[nH]c2=O)cc1 [Compound 5210, (3Z,6Z)-6-(4-(3-Dimethylaminopropoxy)benzylidene)-3-(2-nitrobenzylidene)-2,5-piperazinedione] | – | – | 67 µM | –
4 | CN(C)CCCOc1ccc(/C=c2\[nH]c(=O)/c(=C/c3ccc([N+](=O)[O-])cc3)[nH]c2=O)cc1 [Compound 5228, (3Z,6Z)-3-(4-(3-dimethylaminopropoxy)benzylidene)-6-(4-nitrobenzylidene)-2,5-piperazinedione] | – | – | 1.1 µM | –
5 | CN(C)CCCOc1ccc(/C=c2\[nH]c(=O)/c(=C/c3ccc4c(c3)OCO4)[nH]c2=O)cc1 [Compound 5229, (3Z,6Z)-6-(4-(3-Dimethylaminopropoxy)benzylidene)-3-(3,4-methylenedioxybenzylidene)-2,5-piperazinedione] | – | – | 3.7 µM | –
6 | CN(C)CCCOc1ccc(/C=c2\[nH]c(=O)/c(=C/c3ccc([N+](=O)[O-])cc3)[nH]c2=O)cc1 [Compound 5230, (3Z,6Z)-3-(4-(3-dimethylaminopropoxy)benzylidene)-6-(4-nitrobenzylidene)-2,5-piperazinedione] | 30% | 9% | 0.75 µM | –
7 | CN(C)CCCOc1ccc(/C=c2\[nH]c(=O)/c(=C/c3cccc([N+](=O)[O-])c3)[nH]c2=O)cc1 [Compound 5231, (3Z,6Z)-6-(4-(3-Dimethylaminopropoxy)benzylidene)-3-(3-nitrobenzylidene)-2,5-piperazinedione] | 42% | 36% | 1.5 µM | –
8 | CN(C)CCCOc1ccc(/C=c2\[nH]c(=O)/c(=C/c3cccc(C#N)c3)[nH]c2=O)cc1 [Compound 5232, (3Z,6Z)-3-(3-Cyanobenzylidene)-6-(4-(3-dimethylaminopropoxy)benzylidene)-2,5-piperazinedione] | – | 10% | – | –
9 | CN(C)CCCOc1ccc(/C=c2\[nH]c(=O)/c(=C/c3ccc(Cl)cc3)[nH]c2=O)cc1 [Compound 5233] | 47% | 50% | 2.5 µM | –
10 | COc1ccc(/C=c2\[nH]c(=O)/c(=C/c3ccc(OCCCN(C)C)cc3)[nH]c2=O)cc1 [Compound 5234, (3Z,6Z)-3-(4-(3-Dimethylaminopropoxy)benzylidene)-6-(4-methoxybenzylidene)-2,5-piperazinedione] | – | 10% | – | –
11 | Cc1ccc(/C=c2\[nH]c(=O)/c(=C/c3ccc(OCCCN(C)C)cc3)[nH]c2=O)cc1 [Compound 5235, (3Z,6Z)-3-(4-(3-Dimethylaminopropoxy)benzylidene)-6-(4-methylbenzylidene)-2,5-piperazinedione] | – | – | 6 µM | –
12 | CN(C)CCCOc1ccc(/C=c2\[nH]c(=O)/c(=C/c3ccc(Cl)c(Cl)c3)[nH]c2=O)cc1 [Compound 5236] | – | – | 2.8 µM | –
13 | CN(C)CCCOc1ccc(/C=c2\[nH]c(=O)/c(=C/c3cccc(Cl)c3)[nH]c2=O)cc1 [Compound 5237] | 72% | – | 4 µM | Degree of inhibition in PAI chromogenic substrate assay [1]: 67%
14 | CN(C)CCCOc1ccc(/C=c2\[nH]c(=O)/c(=C/c3ccc(C(C)(C)C)cc3)[nH]c2=O)cc1 [Compound 5238, (3Z,6Z)-3-(4-(3-Dimethylaminopropoxy)benzylidene)-6-(4-tert-butylbenzylidene)-2,5-piperazinedione] | 3% | 36% | – | –
15 | CN(C)CCCOc1ccc(/C=c2\[nH]c(=O)/c(=C/c3ccc(C(F)(F)F)cc3)[nH]c2=O)cc1 [Compound 5239, (3Z,6Z)-3-(4-(3-Dimethylaminopropoxy)benzylidene)-6-(4-trifluoromethylbenzylidene)-2,5-piperazinedione] | 65% | 68% | 7 µM | –
16 | CN(C)CCCOc1ccc(/C=c2\[nH]c(=O)/c(=C/c3cccc(Cl)c3)[nH]c2=O)cc1 [Compound 5240] | – | – | 6.5 µM | Degree of inhibition in PAI chromogenic substrate assay [2]: 65%; Degree of inhibition in PAI chromogenic substrate assay [1]: 46%
17 | COc1ccccc1/C=c1\[nH]c(=O)/c(=C/c2ccc(OCCCN(C)C)cc2)[nH]c1=O [Compound 5241, (3Z,6Z)-6-(4-(3-Dimethylaminopropoxy)benzylidene)-3-(2-methoxybenzylidene)-2,5-piperazinedione] | 1% | 21% | – | –
18 | CN(C)CCCOc1ccc(/C=c2\[nH]c(=O)/c(=C/c3ccc(C#N)cc3)[nH]c2=O)cc1 [Compound 5245] | – | – | 1.8 µM | –

Row | SMILES | inhibition at 20 µM (20 μM (third part of Table 1)) | inhibition at 100 µM (100 μM (third part of Table 1)) | IC50 | other results
19 | CN(C)CCCOc1ccc(/C=c2\[nH]c(=O)/c(=C/c3ccc(C(N)=O)cc3)[nH]c2=O)cc1 [Compound 5246, 4-((3Z,6Z)-6-(4-(3-Dimethylaminopropoxy)benzylidene)-2,5-dioxo-3-piperazinylidene)methylbenzamide] | – | – | – | Degree of inhibition in PAI chromogenic substrate assay [2]: 34%
20 | CC(=O)Nc1ccccc1/C=c1\[nH]c(=O)/c(=C/c2ccc(OCCCN(C)C)cc2)[nH]c1=O [Compound 5248] | – | 10% | – | –
21 | CN(C)CCCOc1ccc(/C=c2\[nH]c(=O)/c(=C/c3ccccc3Cl)[nH]c2=O)cc1 [Compound 5249, (3Z,6Z)-3-(2-Chlorobenzylidene)-6-(4-(3-dimethylaminopropoxy)benzylidene)-2,5-piperazinedione] | 10% | 55% | – | –
22 | CCCCOc1ccc(/C=c2\[nH]c(=O)/c(=C/c3ccc(OCCCN(C)C)cc3)[nH]c2=O)cc1 [Compound 5250] | 10% | 25% | 14 µM | –
23 | CN(C)CCCOc1ccc(/C=c2\[nH]c(=O)/c(=C/c3ccccc3C(F)(F)F)[nH]c2=O)cc1 [Compound 5251, (3Z,6Z)-6-(4-(3-Dimethylaminopropoxy)benzylidene)-3-(2-trifluoromethylbenzylidene)-2,5-piperazinedione] | – | 71% | 67 µM | –
24 | CN(C)CCCOc1ccc(/C=c2\[nH]c(=O)/c(=C/c3ccc(C(N)=O)cc3)[nH]c2=O)cc1 [Compound 5254, 4-((3Z,6Z)-6-(4-(3-Dimethylaminopropoxy)benzylidene)-2,5-dioxo-3-piperazinylidene)methylbenzamide] | – | 79% | 35 µM | Degree of inhibition in PAI chromogenic substrate assay [2]: 76%
25 | CN(C)CCCOc1ccc(/C=c2\[nH]c(=O)/c(=C/c3cccc(N4C(=O)c5ccccc5C4=O)c3)[nH]c2=O)cc1 [Compound 5255, (3Z,6Z)-6-(4-(3-Dimethylaminopropoxy)benzylidene)-3-(3-phthalimidobenzylidene)-2,5-piperazinedione] | 80% | 33% | 15 µM | –
26 | CC(=O)Nc1cccc(/C=c2\[nH]c(=O)/c(=C/c3ccc(OCCCN(C)C)cc3)[nH]c2=O)c1 [Compound 5256, (3Z,6Z)-3-(3-Acetamidobenzylidene)-6-(4-(3-dimethylaminopropoxy)benzylidene)-2,5-piperazinedione] | 10% | 65% | 100 µM | –
27 | CC(=O)Nc1ccccc1/C=c1\[nH]c(=O)/c(=C/c2ccc(OCCCN(C)C)cc2)[nH]c1=O [Compound 5259] | 10% | – | – | –
28 | CN(C)CCCOc1ccc(/C=c2\[nH]c(=O)/c(=C/c3ccc(N)cc3)[nH]c2=O)cc1 [Compound 5260] | – | – | 17 µM | –
29 | CN(C)CCCOc1ccc(/C=c2\[nH]c(=O)/c(=C/c3ccc(C(=O)Nc4ccccc4)cc3)[nH]c2=O)cc1 [Compound 5343, 4-((3Z,6Z)-6-(4-(3-Dimethylaminopropoxy)benzylidene)-2,5-dioxo-3-piperazinylidene)methylbenzanilide] | 20% | – | – | –
30 | CN(C)CCCOc1ccc(/C=c2\[nH]c(=O)/c(=C/c3ccc(C(=O)NCc4ccccc4)cc3)[nH]c2=O)cc1 [Compound 5344, N-Benzyl-4-((3Z,6Z)-6-(4-(3-Dimethylaminopropoxy)benzylidene)-2,5-dioxo-3-piperazinylidene)methylbenzamide] | 40% | – | – | –
31 | CN(C)CCCOc1ccc(/C=c2\[nH]c(=O)/c(=C/c3ccc(C(=O)NCCc4ccccc4)cc3)[nH]c2=O)cc1 [Compound 5345, N-Phenethyl-4-((3Z,6Z)-6-(4-(3-Dimethylaminopropoxy)benzylidene)-2,5-dioxo-3-piperazinylidene)methylbenzamide] | 39% | – | – | –
32 | CN(C)CCCOc1ccc(/C=c2\[nH]c(=O)/c(=C/c3ccc(C(=O)NCCCc4ccccc4)cc3)[nH]c2=O)cc1 [Compound 5346, N-(3-Phenylpropyl)-4-((3Z,6Z)-6-(4-(3-Dimethylaminopropoxy)benzylidene)-2,5-dioxo-3-piperazinylidene)methylbenzamide] | 15% | – | – | –
33 | CN(C)CCCOc1ccc(/C=c2\[nH]c(=O)/c(=C/c3ccc(C(=O)NCCCCc4ccccc4)cc3)[nH]c2=O)cc1 [Compound 5347, N-(4-Phenylbutyl)-4-((3Z,6Z)-6-(4-(3-Dimethylaminopropoxy)benzylidene)-2,5-dioxo-3-piperazinylidene)methylbenzamide] | 39% | – | – | –
34 | CN(C)CCCOc1ccc(/C=c2\[nH]c(=O)/c(=C/c3ccc(C#N)cc3)[nH]c2=O)cc1 [Compound 5348] | 15% | – | – | –
35 | CN(C)CCCOc1ccc(/C=c2\[nH]c(=O)/c(=C/c3ccc(Br)cc3)[nH]c2=O)cc1 [Compound 5360] | 59% | – | 3.5 µM | –
36 | CN(C)CCCOc1ccc(/C=c2\[nH]c(=O)/c(=C/c3ccc(F)cc3)[nH]c2=O)cc1 [Compound 5365, (3Z,6Z)-3-(4-(3-Dimethylaminopropoxy)benzylidene)-6-(4-fluorobenzylidene)-2,5-piperazinedione] | – | – | 6.5 µM | –
